Here are results for 20 compounds from US20240383898A1, “PYRIDO RING COMPOUND, PREPARATION METHOD THEREFOR, INTERMEDIATE, COMPOSITION, AND APPLICATION” (YIYOU BIOTECH (SHANGHAI) CO., LTD, priority 2021, published 2024).

In one assay the target is T1, JAK2 (Homo sapiens, UniProt O60674).
T1 construct: purchased Carna 08-045
Description: In vitro activity test of JAK2 kinase (Caliper EZ Reader conversion assay). The class given is biochemical. The conditions noted are these: enzyme activity, 10 concentrations from 1000 nM, 3-fold dilution. The procedure:
(§1) In Vitro Activity Test of JAK1 and JAK2 Kinases
(§2) • Centrifuge (manufacturer: Eppendorf, model: 5430) • ELISA Instrument (Manufacturer: Perkin Elmer, Model: Caliper EZ Reader 1I) • Echo 550 (Manufacturer: Labcyte, Model: Echo 550)
(§3) (1) Prepare 1 Kinase buffer.
(§4) (2) Compound concentration gradient preparation: The test compound was tested at 1000 nM, 3-fold dilution, 10 concentrations, two-well assay, and configured to a 100-fold final concentration in a 384-well plate. 250 nl of the test compound was then transferred to the 384 reaction plate using Echo550. 250 nl of 100% DMSO was added to each of the negative and positive control wells.
(§5) (3) Prepare 2.5 times the final concentration of kinase solution with 1×Kinase buffer.
(§6) (4) Add 10 μL of 2.5 times the final concentration of kinase solution to the compound wells and 10 μL of 1×Kinase buffer to the negative control wells.
(§7) (5) Centrifuge at 1000 rpm for 30 seconds, mix well with shaking, and incubate at room temperature for 10 minutes.
(§8) (6) Prepare a 25/15-fold final concentration of mixture of ATP and Kinase substrate with 1×Kinase buffer.
(§9) (7) Add 15 μL of a mixture of 25/15 times the final concentration of ATP and substrate to start the reaction.
(§10) (8) Centrifuge the 384-well plate at 1000 rpm for 30 seconds, mix well with shaking, and incubate at room temperature for an appropriate amount of time.
(§11) (9) Stop the kinase reaction by adding 30 μL of termination solution, centrifuge at 1000 rpm for 30 seconds, and mix well with shaking.
(§12) (10) Read the conversion rate with Caliper EZ Reader.
(§13) where: Conversion %_sample is the conversion rate reading of the sample-, Conversion %_min: the average value of the negative control wells, representing the conversion reading of the wells without enzyme activity: Conversion %-max: the average value of the positive control wells, representing the conversion reading of the wells without compound inhibition.
(§14) The log value of concentration was used as the X-axis and the percentage inhibition as the Y-axis, and the function of the analytical software GraphPad Prism 5; log(inhibitor) vs. response -Variable slope, was used to lit dose-effect curves to obtain the IC50) values of each compound on enzyme activity.
(§15) The formula is Y=Bottom+(Top-Bottom)/(1+10^((LogIC50-X)*HillSlope))
(§16) The 1C50 data are specified in Table 1.

Another assay deals with T2, JAK1 (Homo sapiens, UniProt P23458).
T2 construct: purchased Carna 08-114
The assay is described as follows: In vitro activity test of JAK1 kinase (Caliper EZ Reader conversion assay). The assay is classed as biochemical. The following applies: enzyme activity, 10 concentrations from 1000 nM, 3-fold dilution. The procedure: as §1, §2, §3, §4, §5, §6, §7, §8, §9, §10, §11, §12, §13, §14, §15, §16

Molecules are shown by their SMILES. Where only a bound is given, the exact number is not on record here.

T2 sequence (P23458 whole entry, species assumed): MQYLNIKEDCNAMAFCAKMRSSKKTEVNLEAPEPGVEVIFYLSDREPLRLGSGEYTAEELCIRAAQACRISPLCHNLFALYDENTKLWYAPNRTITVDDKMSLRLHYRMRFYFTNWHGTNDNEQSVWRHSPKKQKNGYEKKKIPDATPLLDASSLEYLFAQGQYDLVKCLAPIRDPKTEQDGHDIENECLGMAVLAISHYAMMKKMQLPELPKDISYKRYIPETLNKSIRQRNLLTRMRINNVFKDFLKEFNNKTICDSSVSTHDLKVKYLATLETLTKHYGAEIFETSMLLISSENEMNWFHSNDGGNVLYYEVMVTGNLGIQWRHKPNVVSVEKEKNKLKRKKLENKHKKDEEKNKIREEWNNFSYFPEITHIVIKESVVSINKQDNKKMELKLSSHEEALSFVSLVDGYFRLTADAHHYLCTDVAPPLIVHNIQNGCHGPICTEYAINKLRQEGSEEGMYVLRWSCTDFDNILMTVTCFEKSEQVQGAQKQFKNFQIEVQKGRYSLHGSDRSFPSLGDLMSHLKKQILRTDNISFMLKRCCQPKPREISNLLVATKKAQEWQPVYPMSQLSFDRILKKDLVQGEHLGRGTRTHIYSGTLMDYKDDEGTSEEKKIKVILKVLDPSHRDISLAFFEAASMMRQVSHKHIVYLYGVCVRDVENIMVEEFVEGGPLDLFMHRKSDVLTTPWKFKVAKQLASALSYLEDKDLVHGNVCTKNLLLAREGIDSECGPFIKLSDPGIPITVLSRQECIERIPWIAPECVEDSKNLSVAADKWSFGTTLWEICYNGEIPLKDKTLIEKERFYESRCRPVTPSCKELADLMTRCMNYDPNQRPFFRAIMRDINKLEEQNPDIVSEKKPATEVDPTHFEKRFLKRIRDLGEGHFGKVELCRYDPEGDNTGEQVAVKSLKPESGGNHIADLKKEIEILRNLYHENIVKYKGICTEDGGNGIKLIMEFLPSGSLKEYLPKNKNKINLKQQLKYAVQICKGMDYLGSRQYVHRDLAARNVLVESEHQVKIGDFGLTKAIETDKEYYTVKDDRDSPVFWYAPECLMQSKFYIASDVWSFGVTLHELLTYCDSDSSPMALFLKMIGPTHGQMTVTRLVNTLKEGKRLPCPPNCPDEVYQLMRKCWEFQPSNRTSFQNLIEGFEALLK
T1 sequence (O60674 whole entry, species assumed): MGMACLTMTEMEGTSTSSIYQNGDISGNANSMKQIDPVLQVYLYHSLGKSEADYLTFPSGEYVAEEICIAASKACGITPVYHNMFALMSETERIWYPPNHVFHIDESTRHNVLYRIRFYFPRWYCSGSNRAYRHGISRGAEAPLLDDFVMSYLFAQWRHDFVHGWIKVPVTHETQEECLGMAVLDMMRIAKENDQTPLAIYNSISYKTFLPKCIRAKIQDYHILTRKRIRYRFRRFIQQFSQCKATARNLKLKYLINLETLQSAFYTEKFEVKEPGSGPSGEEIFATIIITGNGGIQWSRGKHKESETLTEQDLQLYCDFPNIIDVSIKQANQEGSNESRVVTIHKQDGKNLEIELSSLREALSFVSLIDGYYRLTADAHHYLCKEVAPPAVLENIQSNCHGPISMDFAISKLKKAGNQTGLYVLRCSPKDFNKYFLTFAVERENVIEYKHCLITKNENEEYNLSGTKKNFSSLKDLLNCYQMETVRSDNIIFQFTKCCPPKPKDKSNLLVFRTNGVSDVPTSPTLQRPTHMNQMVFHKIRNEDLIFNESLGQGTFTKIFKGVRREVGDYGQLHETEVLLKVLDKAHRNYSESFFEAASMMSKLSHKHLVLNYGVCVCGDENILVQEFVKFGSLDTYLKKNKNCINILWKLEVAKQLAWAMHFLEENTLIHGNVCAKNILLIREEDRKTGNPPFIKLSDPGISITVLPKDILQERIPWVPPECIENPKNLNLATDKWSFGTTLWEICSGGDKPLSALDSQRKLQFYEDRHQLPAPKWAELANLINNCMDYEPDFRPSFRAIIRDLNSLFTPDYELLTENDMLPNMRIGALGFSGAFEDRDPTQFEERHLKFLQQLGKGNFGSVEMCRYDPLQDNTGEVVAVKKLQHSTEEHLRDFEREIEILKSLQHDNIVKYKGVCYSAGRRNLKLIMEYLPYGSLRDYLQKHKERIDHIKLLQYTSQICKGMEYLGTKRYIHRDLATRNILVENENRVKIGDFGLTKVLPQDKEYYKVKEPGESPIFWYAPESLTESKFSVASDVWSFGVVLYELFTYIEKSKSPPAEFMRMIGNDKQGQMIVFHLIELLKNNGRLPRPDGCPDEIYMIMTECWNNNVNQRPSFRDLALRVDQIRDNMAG

As a reminder, the IC50 is the concentration that inhibits the measured activity by half. A higher IC50 goes with weaker potency. On to `C[C@@H](O)c1nc2cnc3[nH]ccc3c2n1C1CCN(C(=O)NCC(F)(F)F)C1` (stereo in doubt) [LXS20, (R)-3-(2-((R)-1-Hydroxyethyl)imidazo[4,5-d]pyrrolo[2,3-b]pyridin-1(6H)-yl)-N-(2,2,2-trifluoroethyl)pyrrolidine-1-carboxamide], for which the IC50 against JAK2 and against JAK1 was 100 to 1000 nM throughout.

Consider `CCCS(=O)(=O)N1CCC(n2c([C@@H](C)O)nc3cnc4[nH]ccc4c32)C1` (stereo in doubt) [LXS21, (R)-1-(1-((R)-1-(Propylsulfonyl)pyrrolidin-3-yl)-1,6-dihydroimidazo[4,5-d]pyrrolo[2,3-b]pyridin-2-yl)ethanol], for which the IC50 at JAK2 and against JAK1 was 100 to 1000 nM in each case.

As for `N#C[C@H]1CC[C@H](n2c(-c3ccc(CO)o3)nc3cnc4[nH]ccc4c32)CC1` (stereo in doubt) [LXS22, trans-4-(2-(5-(hydroxymethyl)furan-2-yl)imidazo[4,5-d]pyrrolo[2,3-b]pyridin-1(6H)-yl)cyclohexanecarbonitrile], the IC50 against JAK2 and against JAK1 was 10 to 100 nM in each case.

Turning to `O=C(NCC(F)(F)F)N1CCC(n2c(-c3ccc(CO)o3)nc3cnc4[nH]ccc4c32)C1` (stereo in doubt) [LXS23, (R)-3-(2-(5-(hydroxymethyl)furan-2-yl)imidazo[4,5-d]pyrrolo[2,3-b]pyridin-1(6H)-yl)-N-(2,2,2-trifluoroethyl)pyrrolidine-1-carboxamide], the IC50 on JAK2 and at JAK1 was 100 to 1000 nM each time.

Take `O=C(NCC(F)(F)F)N1CCC(n2c(-c3ncc[nH]3)nc3cnc4[nH]ccc4c32)C1` (stereo in doubt) [LXS24, (R)-3-(2-(1H-imidazol-2-yl)imidazo[4,5-d]pyrrolo[2,3-b]pyridin-1(6H)-yl)-N-(2,2,2-trifluoroethyl)pyrrolidine-1-carboxamide]: the IC50 against JAK2 and at JAK1 was 100 to 1000 nM in each case.

As to `C=CC(=O)N1CCC(n2c(-c3ncc[nH]3)nc3cnc4[nH]ccc4c32)C1` (stereo in doubt) [LXS25, (R)-1-(3-(2-(1H-imidazol-2-yl)imidazo[4,5-d]pyrrolo[2,3-b]pyridin-1(6H)-yl)pyrrolidin-1-yl)prop-2-en-1-one], the IC50 against JAK2 and on JAK1 was 100 to 1000 nM in each case.

Regarding `Cc1ncc(-c2nc3cnc4[nH]ccc4c3n2C2CCC(C#N)CC2)s1` (stereo in doubt) [LXS26, trans-4-(2-(2-Methylthiazol-5-yl)imidazo[4,5-d]pyrrolo[2,3-b]pyridin-1(6H)-yl)cyclohexanecarbonitrile], the IC50 against JAK2 and at JAK1 was 10 to 100 nM throughout.

Turning to `N#C[C@H]1CC[C@H](n2c(-c3cnc(N)s3)nc3cnc4[nH]ccc4c32)CC1` (stereo in doubt) [LXS27, trans-4-(2-(2-Aminothiazol-5-yl)imidazo[4,5-d]pyrrolo[2,3-b]pyridin-1(6H)-yl)cyclohexanecarbonitrile], the IC50 at JAK2 and against JAK1 was 10 to 100 nM throughout.

With `Cc1ccc(-c2nc3cnc4[nH]ccc4c3n2C2CCC(C#N)CC2)s1` (stereo in doubt) [LXS28, trans-4-(2-(2-Methylthiophen-5-yl)imidazo[4,5-d]pyrrolo[2,3-b]pyridin-1(6H)-yl)cyclohexanecarbonitrile], the half-inhibitory concentration (IC50) on JAK2 and on JAK1 was 10 to 100 nM in each case.

Consider `Cc1ccc(-c2nc3cnc4[nH]ccc4c3n2C2CCC(C#N)CC2)o1` (stereo in doubt) [LXS29, trans-4-(2-(2-Methylfuran-5-yl)imidazo[4,5-d]pyrrolo[2,3-b]pyridin-1(6H)-yl)cyclohexanecarbonitrile], for which the IC50 against JAK2 and against JAK1 was 10 to 100 nM in each case.

`N#C[C@H]1CC[C@H](n2c(-c3cccc(O)c3)nc3cnc4[nH]ccc4c32)CC1` (stereo in doubt) [LXS35, trans-4-(2-(3-Hydroxyphenyl)imidazo[4,5-d]pyrrolo[2,3-b]pyridin-1(6H)-yl)cyclohexanecarbonitrile]: the values for the IC50 against JAK2 and against JAK1 were below 10 nM and 10 to 100 nM, respectively.

As for `N#C[C@H]1CC[C@H](n2c(-c3ccc(O)cc3O)nc3cnc4[nH]ccc4c32)CC1` (stereo in doubt) [LXS36, trans-4-(2-(2,4-Dihydroxyphenyl)imidazo[4,5-d]pyrrolo[2,3-b]pyridin-1(6H)-yl)cyclohexanecarbonitrile], the IC50 at JAK2 and at JAK1 was 10 to 100 nM each time.

`N#C[C@H]1CC[C@H](n2c(-c3ccc(C(F)(F)F)cc3)nc3cnc4[nH]ccc4c32)CC1` (stereo in doubt) [LXS37, trans-4-(2-(4-(Trifluoromethyl)phenyl)imidazo[4,5-d]pyrrolo[2,3-b]pyridin-1(6H)-yl)cyclohexanecarbonitrile]: the IC50 on JAK2 and against JAK1 was 100 to 1000 nM throughout.

Regarding `N#C[C@H]1CC[C@H](n2c(-c3ccccc3O)nc3cnc4[nH]ccc4c32)CC1` (stereo in doubt) [LXS38, trans-4-(2-(2-Hydroxyphenyl)imidazo[4,5-d]pyrrolo[2,3-b]pyridin-1(6H)-yl)cyclohexanecarbonitrile], the IC50 against JAK2 and against JAK1 was 10 to 100 nM each time.

As to `N#C[C@H]1CC[C@H](n2c(-c3ccc(O)cc3F)nc3cnc4[nH]ccc4c32)CC1` (stereo in doubt) [LXS39, trans-4-(2-(2-Fluoro-4-hydroxyphenyl)imidazo[4,5-d]pyrrolo[2,3-b]pyridin-1(6H)-yl)cyclohexanecarbonitrile], the results for the IC50 on JAK2 and on JAK1 were 100 to 1000 nM and 10 to 100 nM, respectively.

On to `N#C[C@H]1CC[C@H](n2c(-c3ccccc3F)nc3cnc4[nH]ccc4c32)CC1` (stereo in doubt) [LXS40, trans-4-(2-(2-Fluorophenyl)imidazo[4,5-d]pyrrolo[2,3-b]pyridin-1(6H)-yl)cyclohexanecarbonitrile], for which the IC50 on JAK2 and at JAK1 was 10 to 100 nM in each case.

In the case of `COc1ccc(-c2nc3cnc4[nH]ccc4c3n2C2CCC(C#N)CC2)c(O)c1` (stereo in doubt) [LXS41, trans-4-(2-(2-Hydroxy-4-methoxyphenyl)imidazo[4,5-d]pyrrolo[2,3-b]pyridin-1(6H)-yl)cyclohexanecarbonitrile], the IC50 against JAK2 and against JAK1 was 100 to 1000 nM each time.

In the case of `CSc1ccc(-c2nc3cnc4[nH]ccc4c3n2C2CCC(C#N)CC2)cc1` (stereo in doubt) [LXS42, trans-4-(2-(4-(Methylthio)phenyl)imidazo[4,5-d]pyrrolo[2,3-b]pyridin-1(6H)-yl)cyclohexanecarbonitrile], the IC50 on JAK2 and against JAK1 was 100 to 1000 nM in each case.

`CCCS(=O)(=O)N1CC(CC#N)(n2cc(-n3c(-c4ccc(CO)o4)nc4cnc5[nH]ccc5c43)cn2)C1` [LXS14, 2-(1-(propylsulfonyl)-3-(4-(2-(5-(hydroxymethyl)furan-2-yl)imidazo[4,5-d]pyrrolo[2,3-b]pyridin-1(6H)-yl)-1H-pyrazol-1-yl)azetidin-3-yl)acetonitrile] had an IC50 at JAK1 of 100 to 1000 nM.

For `Cc1ccc(-c2nc3cnc4[nH]ccc4c3n2-c2cnn(CCC#N)c2)s1` [LXS84, 3-(4-(2-(5-Methylthiophen-2-yl)imidazo[4,5-d]pyrrolo[2,3-b]pyridin-1(6H)-yl)-1H-pyrazol-1-yl)propanenitrile], the IC50 against JAK1 was in the range of 10 to 100 nM.
